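Compound exposure: 48 hours, 5 concentrations, 96-well plates. Here, GI50 denotes the concentration required for 50% inhibition of growth.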 Calls of active or inactive are those of the source. Cut-off read from the data, not from the text of the source: active = GI50 up to about 1.1 µM and inactive = higher.
How the values were obtained:
Test in all cases: inhibition of tumour cell growth, NCI panel, 48 h
UACC-257 = test system: UACC-257
TK-10 = test system: TK-10
MDA-MB-231 = test system: MDA-MB-231
SF-268 = test system: SF-268
OVCAR-5 = test system: OVCAR-5
HOP-62 = test system: HOP-62
SK-MEL-5 = test system: SK-MEL-5
786-0 = test system: 786-0
CCRF-CEM = test system: CCRF-CEM
SF-295 = test system: SF-295
NCI/ADR-RES = test system: NCI/ADR-RES
KM12 = test system: KM12
CAKI-1 = test system: CAKI-1
T47D = test system: T47D
MDA-N = test system: MDA-N
MDA-MB-435 = test system: MDA-MB-435
HCT-15 = test system: HCT-15
Hs-578T = test system: Hs-578T
DLD-1 = test system: DLD-1
DMS-273 = test system: DMS-273

Measured: GI50

C=C1CC2(CC(c3ccccc3OC)OC(c3ccccc3OC)C2)OC1=O (stereo not drawn)
2.28 µM: HCT-15
inactive: UACC-257 2.07 µM | TK-10 1.71 µM | MDA-MB-231 1.77 µM | SF-268 2.55 µM | OVCAR-5 7.46 µM | HOP-62 13.6 µM | SK-MEL-5 2.58 µM | 786-0 1.63 µM | CCRF-CEM 1.71 µM | SF-295 7.38 µM | NCI/ADR-RES 2.47 µM | KM12 2.27 µM | CAKI-1 2.47 µM | T47D 1.72 µM | MDA-N 1.83 µM | MDA-MB-435 1.91 µM | Hs-578T 2.02 µM

CC1(C)CC2=NC(SSC3=C(C#N)C(c4ccc(Br)cc4)C4=C(O)CC(C)(C)CC4=N3)=C(C#N)C(c3ccc(Br)cc3)C2=C(O)C1 (stereo not drawn)
> 100 µM: HCT-15
inactive: UACC-257 > 100 µM | TK-10 > 100 µM | MDA-MB-231 > 100 µM | SF-268 > 100 µM | OVCAR-5 > 100 µM | HOP-62 > 100 µM | SK-MEL-5 > 100 µM | 786-0 > 100 µM | CCRF-CEM > 100 µM | SF-295 > 100 µM | NCI/ADR-RES > 100 µM | KM12 > 100 µM | CAKI-1 > 100 µM | T47D > 100 µM | MDA-N > 100 µM | MDA-MB-435 > 100 µM | Hs-578T > 100 µM

CC(N/N=N/c1ccc(-c2nc3ccccc3[nH]2)cc1)C(=O)O (stereo not drawn)
inactive: UACC-257 > 100 µM | TK-10 81.7 µM | MDA-MB-231 33.7 µM | SF-268 32.7 µM | OVCAR-5 > 100 µM | HOP-62 45.2 µM | SK-MEL-5 18.8 µM | 786-0 15.7 µM | CCRF-CEM 3.18 µM | SF-295 19.6 µM | NCI/ADR-RES 7.94 µM | KM12 19.2 µM | CAKI-1 42.7 µM | T47D 16.3 µM | MDA-N 27.5 µM | MDA-MB-435 32.7 µM | Hs-578T 33.7 µM
9.57 µM: HCT-15

O=[N+]([O-])c1nccn1COCCBr
inactive: UACC-257 > 100 µM | TK-10 > 100 µM | SF-268 > 100 µM | OVCAR-5 > 100 µM | DLD-1 > 100 µM | HOP-62 > 100 µM | SK-MEL-5 > 100 µM | 786-0 > 100 µM | CCRF-CEM > 100 µM | SF-295 > 100 µM | KM12 > 100 µM | CAKI-1 > 100 µM
> 100 µM: HCT-15

CC(C)c1ccccc1NC(=O)/C(Cl)=C1/Sc2ccccc2NC1=O
inactive: TK-10 71.9 µM | SF-268 34 µM | OVCAR-5 43.3 µM | DLD-1 35.5 µM | HOP-62 30.8 µM | SK-MEL-5 20.6 µM | 786-0 30.5 µM | CCRF-CEM 24.6 µM | CAKI-1 17.5 µM
22.8 µM: HCT-15

Cc1cccc2c1C(=O)OC2(C)c1cccc2ccccc12 (stereo not drawn)
inactive: UACC-257 34.2 µM | TK-10 29.5 µM | SF-268 28.4 µM | OVCAR-5 > 100 µM | DLD-1 30.5 µM | SK-MEL-5 16.4 µM | 786-0 30.9 µM | CCRF-CEM 17.5 µM | SF-295 32.1 µM | KM12 27.6 µM | CAKI-1 19.8 µM
29 µM: HCT-15

O=C(/C=C/c1cccs1)c1ccc(Cl)s1
inactive: UACC-257 39.8 µM | TK-10 > 100 µM | MDA-MB-231 40.3 µM | SF-268 38.7 µM | OVCAR-5 54.3 µM | HOP-62 > 100 µM | SK-MEL-5 50.7 µM | 786-0 > 10 µM | CCRF-CEM 25.1 µM | SF-295 37.8 µM | NCI/ADR-RES > 100 µM | KM12 21.8 µM | CAKI-1 83.4 µM | T47D 35.1 µM | MDA-N > 10 µM | MDA-MB-435 21.9 µM | Hs-578T 46.7 µM
18.2 µM: HCT-15

C=C(C)C12CC3CC/C(=N/O)C(C1)C3(N1CCOCC1)C/C2=N/O (stereo not drawn)
> 100 µM: HCT-15
inactive: UACC-257 > 100 µM | TK-10 > 100 µM | MDA-MB-231 > 100 µM | SF-268 > 100 µM | OVCAR-5 > 100 µM | HOP-62 > 100 µM | SK-MEL-5 > 100 µM | 786-0 > 100 µM | CCRF-CEM > 100 µM | SF-295 > 100 µM | NCI/ADR-RES > 100 µM | KM12 > 100 µM | CAKI-1 > 100 µM | T47D > 100 µM | MDA-N > 100 µM | MDA-MB-435 > 100 µM | Hs-578T > 100 µM

O=C(NC12CC3CC(CC(C3)C1)C2)C(=O)c1c[nH]c2ccc([N+](=O)[O-])cc12
inactive: UACC-257 85.5 µM | TK-10 24.9 µM | SF-268 9.48 µM | OVCAR-5 > 87.5 µM | HOP-62 17.1 µM | SK-MEL-5 30.3 µM | DMS-273 5.66 µM | 786-0 16.9 µM | CCRF-CEM > 44.9 µM | SF-295 6.18 µM | KM12 33.7 µM | CAKI-1 65.9 µM
> 78.9 µM: HCT-15

From ChEMBL document CHEMBL1201862, “PubChem BioAssay data set” (2004)
